Entries after “also recorded” stand apart in the source; their conditions may differ. Read-outs that look alike come from different tables or passages of the source. Marks after values point to notes of the source that are not given here.
Tests used:
human δ opioid receptor [1] = biological target: T1, human δ opioid receptor (Homo sapiens, UniProt P41143); assay: [35S]GTPγS binding assay, intrinsic; assay type: biochemical
human κ opioid receptor [2] = biological target: T2, human κ opioid receptor (Homo sapiens, UniProt P41145); assay: [35S]GTPγS binding assay, intrinsic; assay type: biochemical
T2 sequence (P41145 whole entry): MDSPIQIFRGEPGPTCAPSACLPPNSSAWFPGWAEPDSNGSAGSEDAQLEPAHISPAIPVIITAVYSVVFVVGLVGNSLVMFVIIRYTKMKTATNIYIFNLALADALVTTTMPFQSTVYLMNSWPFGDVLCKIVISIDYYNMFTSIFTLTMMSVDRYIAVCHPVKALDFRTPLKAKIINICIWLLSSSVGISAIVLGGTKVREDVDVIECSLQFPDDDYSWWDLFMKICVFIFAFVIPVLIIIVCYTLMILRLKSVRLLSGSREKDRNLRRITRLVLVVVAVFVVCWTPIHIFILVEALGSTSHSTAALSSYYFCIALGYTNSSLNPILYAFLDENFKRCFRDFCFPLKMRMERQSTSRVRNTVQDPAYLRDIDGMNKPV

human μ opioid receptor [3] = biological target: T3, human μ opioid receptor (Homo sapiens, UniProt P35372); assay: [35S]GTPγS binding assay, intrinsic; assay type: biochemical
T3 sequence (P35372 whole entry): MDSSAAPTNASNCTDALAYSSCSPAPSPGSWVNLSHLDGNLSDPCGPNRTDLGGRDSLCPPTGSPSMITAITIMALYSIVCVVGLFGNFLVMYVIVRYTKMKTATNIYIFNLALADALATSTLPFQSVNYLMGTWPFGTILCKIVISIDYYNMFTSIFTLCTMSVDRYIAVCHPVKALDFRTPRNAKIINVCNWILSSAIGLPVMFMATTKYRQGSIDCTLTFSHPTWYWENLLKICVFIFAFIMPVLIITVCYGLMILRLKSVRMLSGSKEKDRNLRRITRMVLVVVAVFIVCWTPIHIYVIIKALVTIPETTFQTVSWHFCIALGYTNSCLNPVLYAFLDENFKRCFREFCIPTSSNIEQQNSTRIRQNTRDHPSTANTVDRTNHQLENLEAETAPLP

human δ opioid receptor [4] = biological target: T1, human δ opioid receptor; assay: Inhibition of DPDPE-stimulated [35S]GTPγS binding; assay type: biochemical; conditions: for Ke (nM) δ, DPDPE: cloned human δ receptor in CHO cells, mean ± SE, at least three experiments
human κ opioid receptor [5] = biological target: T2, human κ opioid receptor; assay: Inhibition of U69,593-stimulated [35S]GTPγS binding; assay type: biochemical; conditions: for fold more potent antagonist than N-methyl counterpart, κ receptor: ratio of Ke values (a vs b analogue)
human μ opioid receptor [6] = biological target: T3, human μ opioid receptor; assay: Inhibition of DAMGO-stimulated [35S]GTPγS binding; assay type: biochemical; conditions: for fold more potent antagonist than N-methyl counterpart, μ receptor: ratio of Ke values (a vs b analogue)
human δ opioid receptor [7] = biological target: T1, human δ opioid receptor; conditions: cloned human δ receptor; data taken from ref 15; cited from earlier work
human μ opioid receptor [8] = biological target: T3, human μ opioid receptor; conditions: cloned human μ receptor; data taken from ref 15; cited from earlier work
μ receptor = conditions: mouse writhing test, μ antagonism; cited from earlier work
opioid receptor [9] = conditions: cited from earlier work
opioid receptor [10] = conditions: cited from earlier work; remark: listed apart in the source
κ receptor = conditions: mouse writhing test, κ antagonism; cited from earlier work

T1 sequence (P41143 whole entry): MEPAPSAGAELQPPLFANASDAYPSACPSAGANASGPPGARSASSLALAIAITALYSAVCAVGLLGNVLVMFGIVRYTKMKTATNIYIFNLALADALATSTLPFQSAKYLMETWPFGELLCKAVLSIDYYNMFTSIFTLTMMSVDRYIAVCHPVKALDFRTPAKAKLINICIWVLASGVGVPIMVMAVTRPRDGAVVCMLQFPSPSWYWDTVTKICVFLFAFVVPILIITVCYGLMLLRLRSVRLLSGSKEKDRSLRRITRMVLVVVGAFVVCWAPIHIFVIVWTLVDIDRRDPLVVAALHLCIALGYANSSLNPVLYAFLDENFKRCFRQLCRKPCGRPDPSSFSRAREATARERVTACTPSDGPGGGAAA

Structure (SMILES) | agonist activity at 10 μM, δ receptor (human δ opioid receptor [1]) | agonist activity at 10 μM, κ receptor (human κ opioid receptor [2]) | agonist activity at 10 μM, μ receptor (human μ opioid receptor [3]) | Kb (human κ opioid receptor [5]) [nM] | Kb (human δ opioid receptor [4]) [nM] | Kb (human μ opioid receptor [6]) [nM] | further results
C[C@H]1CN(CCCc2ccccc2)CCN1c1cccc(O)c1 [Compound 4b, 3-[(2S)-2-Methyl-4-(3-phenylpropyl)piperazin-1-yl]phenol] | no opioid agonist efficacy | no opioid agonist efficacy | no opioid agonist efficacy | – | – | – | –
Oc1cccc(N2CCN(CCCc3ccccc3)CC2)c1 [Compound 8b, 3-[4-(3-Phenylpropyl)piperazin-1-yl]phenol] | no opioid agonist efficacy | no opioid agonist efficacy | no opioid agonist efficacy | 36.8 ± 16.8 | – | – | fold more potent antagonist than N-methyl counterpart, δ receptor (human δ opioid receptor [4]; ratio of Ke values (a vs b analogue)): 47 fold; fold more potent antagonist than N-methyl counterpart, μ receptor (human μ opioid receptor [6]): 507 fold
CN1CCN(c2cccc(O)c2)CC1 [Compound 8a, 3-(4-Methylpiperazin-1-yl)phenol] | no opioid agonist efficacy | no opioid agonist efficacy | no opioid agonist efficacy | – | 1600 ± 480 | 4300 ± 1700 | –
CC1(c2cccc(O)c2)CCN(CCCc2ccccc2)CC1 [Compound 6b, 3-[4-Methyl-1-(3-phenylpropyl)piperidin-4-yl]phenol] | no agonist efficacy | no agonist efficacy | no agonist efficacy | 21.3 ± 9 | 178 ± 47 | 5.5 ± 0.59 | fold more potent antagonist than N-methyl counterpart, κ receptor (human κ opioid receptor [5]): 22 fold; fold more potent antagonist than N-methyl counterpart, μ receptor (human μ opioid receptor [6]): 177 fold
CC1CN(CCCc2ccccc2)CCC1c1cccc(O)c1 (stereo not drawn) [Compound 5b, 3-[3-Methyl-1-(3-phenylpropyl)piperidin-4-yl]phenol] | no agonist efficacy | no agonist efficacy | no agonist efficacy | 16.5 ± 5 | 46 ± 18 | 11.9 ± 2 | fold more potent antagonist than N-methyl counterpart, κ receptor (human κ opioid receptor [5]): 79 fold; fold more potent antagonist than N-methyl counterpart, μ receptor (human μ opioid receptor [6]): 105 fold
CN1CCC(c2cccc(O)c2)CC1 [Compound 7a, 3-(1-Methylpiperidin-4-yl)phenol] | no agonist activity | no agonist activity | no agonist activity | 2700 ± 1300 | – | – | Ke (nM) δ, DPDPE (human δ opioid receptor [4]): inactive; also recorded: no antagonist properties; also recorded: IA ^d; Ke (nM) μ, DAMGO (human μ opioid receptor [6]; cloned human μ receptor in CHO cells, mean ± SE, at least three experiments): inactive; also recorded: no antagonist properties; also recorded: IA ^d
C[C@H]1CN(CCCc2ccccc2)CC[C@@]1(C)c1cccc(O)c1 [Compound 2b, 3-[(3R,4R)-3,4-Dimethyl-1-(3-phenylpropyl)piperidin-4-yl]phenol] | – | – | – | 0.88 ± 0.17 | – | – | Ke (nM) δ, DPDPE (human δ opioid receptor [7]): 0.9 ± 0.32 ^b nM; Ke (nM) μ, DAMGO (human μ opioid receptor [8]): 0.1 ± 0.02 ^b nM; AD50, antagonist of morphine-induced antinociception (μ receptor): 0.28 mg/kg
CC1CN(C)CCC1c1cccc(O)c1 (stereo not drawn) [Compound 5a, 3-(1,3-Dimethylpiperidin-4-yl)phenol] | – | – | – | 1310 ± 447 | – | 1250 ± 423 | –
CN1CCC(C)(c2cccc(O)c2)CC1 [Compound 6a, 3-(1,4-Dimethylpiperidin-4-yl)phenol] | – | – | – | 477 ± 150 | – | 974 ± 230 | EC50 (human δ opioid receptor [1]): 8300 nM; Ke (nM) δ, DPDPE (human δ opioid receptor [4]): agonist ^c
C[C@H]1CN(C)CC[C@@]1(C)c1cccc(O)c1 [Compound 2a, 3-[(3R,4R)-1,3,4-Trimethylpiperidin-4-yl]phenol] | no opioid agonist efficacy | no opioid agonist efficacy | no opioid agonist efficacy | 134 ± 27.1 | – | – | opioid receptor agonist activity in the rat tail heat analgesic test (opioid receptor [9]): did not have any opioid receptor agonist activity; opioid receptor agonist activity in the mouse writhing test (opioid receptor [10]): did not have any opioid receptor agonist activity; Ke (nM) δ, DPDPE (human δ opioid receptor [7]): 681 ± 241 ^b nM; AD50, antagonist of U50,488-induced antinociception (κ receptor): > 5.0 mg/kg; Ke (nM) μ, DAMGO (human μ opioid receptor [8]): 29.3 ± 3.4 ^b nM; AD50, antagonist of morphine-induced antinociception (μ receptor): 0.74 mg/kg
Oc1cccc(C2CCN(CCCc3ccccc3)CC2)c1 [Compound 7b, 3-[1-(3-Phenylpropyl)piperidin-4-yl]phenol] | no agonist efficacy | no agonist efficacy | no agonist efficacy | 5.8 ± 2 | 418 ± 120 | 75.6 ± 21 | –
C[C@H]1CN(C)CCN1c1cccc(O)c1 [Compound 4a, 3-[(2S)-2,4-Dimethylpiperazin-1-yl]phenol] | no opioid agonist efficacy | no opioid agonist efficacy | no opioid agonist efficacy | – | – | – | Ke (nM) δ, DPDPE (human δ opioid receptor [4]): no antagonism; also recorded: IA ^d

From paper PMC4070716 (Journal of Medicinal Chemistry, 2014)
